The source of these data is patent US20200281897A1, “INDAZOLE DERIVATIVES FOR CANCER TREATMENT” (Servicio Andaluz de Salud, priority 2016, published 2020).

Common to all, as to format: cell-based, human
One data set concerns U266. Nature of the data set: Mitochondrial transmembrane potential analysis (TMRE). The conditions noted are these: U266, 50 μM, from 15 minutes. As to the method:
Cell lines U266 were exposed to 50 μM of WIN-55 for 15, 30, 45, and 60 minutes. The loss of mitochondrial membrane potential (Aym) was calculated using TRME (tetramethylrhodamine-ethyl-ester-perchlorate) according to the manufacturer's instructions and CCCP (2-[2-(3-chlorophenyl)hydrazinylidene] propanedinitrile) was used as a control to induce the loss of Aym.

The next data set has as its system KG-1a. The experiment in a line: WST-1 cell viability assay, KG-1a. The conditions noted are these: 18 hours. As to the method: The cell lines of acute myeloid leukemia KG-1a and HL60 (American Type Culture Collection) were cultured in IMDM medium supplemented with 2 mM of L-glutamine, […] of penicillin, 100 μg/ml of streptomycin, and 15% fetal bovine serum (FBS).
(§1) The cell lines and primary cells were cultured in 96-well plates (5×10e5 cells per well) with the addition of the indicated concentrations of WIN 55,212-2 or PGN cannabinoids in DMSO or with the solvent only in triplicate at 18, 48, and 72 hours. Caspase inhibitor Z-VAD (OMe)-FMK or the CB2 receptor antagonist PGN-8, -37, and -70, together with the cannabinoid WIN-55,212-2, were also added. Cell viability was determined by means of the WST-1 assay [2-(4-iodophenyl)-3-(4-nitrophenyl)-5-(2,4-disulfophenyl)-2H-tetrazolium] according to the manufacturer's instructions (Dojindo Molecular Technologies). Optical densities were measured at 450 nm using a Multiskan™ Go Microplate plate reader (Thermo Fisher Scientific, Waltham, Mass., USA).
Now it will be analyzed whether the exposure to cannabinoids had any effect on the viability of the tumor cells in vitro. To that end, the human AML U937, HL60, KG-1a, NB-4, MOLM-13, and KG-1 cell lines were cultured in serum-free medium and exposed to various concentrations of WIN-55,212-2 (range of 100 nM to 50 μM) for 18 hours, and cell viability was measured by means of WST-1 assays (Table 1). […]
On the technique in general: Tetrazolium dyes change colour on reduction, which living cells bring about.

A further data set relates to KG-1. Nature of the data set: WST-1 cell viability assay, KG-1. The conditions noted are these: KG-1, 18 hours. As to the method: U937, NB-4, KG-1, and MOLM-13 (DMSZ, Braunschweig, Germany) were cultured in complete RPMI 1640 medium (with 2 mM of L-glutamine, 100 mg of penicillin, 100 μg/ml of streptomycin, and with 10% FBS), supplemented with 10 mM HEPES, 1×NaPuvuvato, and 1× non-essential amino acids.
as §1
Now it will be analyzed whether the exposure to cannabinoids had any effect on the viability of the tumor cells in vitro. […]

The structures appear in SMILES notation.

By IC50 is commonly meant the midpoint of a concentration-inhibition curve. Higher therefore signals weaker potency.

With `CS(=O)(=O)O.Cc1c(C(=O)c2cccc3ccccc23)c2cccc3c2n1[C@H](CN1CCOCC1)CO3` [WIN-55, (R)-(+)-[2,3-dihydro-5-methyl-3-(4-morpholinomethyl)-pyrrolo[1,2,3]-1,4-benzoxazin-6-yl]-1-naphthalenylmethanone mesylate], the mitochondrial membrane potential entry with U266 is reported as “early loss of mitochondrial membrane potential”. Also, in the data set on KG-1a, the “% viable cells at 50 μM” value turned out to be 42.1% and inhibition was half-maximal at 22 µM (IC50). Besides, in the data set on KG-1, the “% viable cells at 50 μM” value was determined as 57.4% and the midpoint of inhibition, the IC50, lay at 33.2 µM.
